These results are taken from US20050233058A1, “Aminoacid derivatives of dicarboxylic acids as flavor ingredients” (priority 2004, published 2005).

The assay in a line: Organoleptic description of the compounds (umami, mouthfeel). The note with it: for Additional feeling imparted: in a meet type application.

Consider `O=C(O)CCC(=O)N[C@@H](CCC(=O)O)C(=O)O` [succinoyl-Glu, N-(3-carboxypropionyl)-glutamic acid], for which the “Taste / organoleptic character of the compound” value is given as “slightly acidic note together with a well perceivable umami taste or character having a broth connotation”.

For `O=C(O)CCCC(=O)N[C@@H](CCC(=O)O)C(=O)O` [glutaryl-Glu, N-(4-carboxybutanoyl)L-glutamic acid], the Additional feeling imparted entry is given as “slightly more fatty feeling”.

For the molecule `CC(C)C[C@H](NC(=O)CCC(=O)O)C(=O)O` [succinoyl-Leu, N-(3-carboxypropionyl)leucine], the “Taste / organoleptic character of the compound” value was “slightly more acidic and slightly less umami taste than the one of succinoyl-Glu”.

Regarding `CC(C)C[C@H](NC(=O)CCCC(=O)O)C(=O)O` [Glutaryl-Leu, N-(4-carboxybutanoyl)-L-leucine], the Additional feeling imparted entry is listed as “slightly more fatty feeling”.

With `O=C(O)/C=C\C(=O)N[C@@H](CCC(=O)O)C(=O)O` [Maleyl-Glu, (Z)-N-(3-carboxy-2-propenoyl)-L-glutamic acid], the Additional feeling imparted result is “slightly more juicy feeling”.
